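Where inhibition never reached the appropriate level, the endpoint shown equals the highest concentration tested. Otherwise, values were interpolated linearly from a five-concentration, 48-hour dose response in 96-well plates. At the GI50, growth is halved.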 Activity calls are given as the source filed them. Rule as the data show it: active = GI50 up to about 1.1 µM and inactive = higher. Where a SMILES comes first, the peptide text is derived from it.
What was measured:
Test in all cases: DTP human tumour cell line panel, 48 h
[1] = test system: NCI-H226
[2] = test system: MDA-MB-231
[3] = test system: BT-549
[4] = test system: NCI-H460
[5] = test system: DU-145
[6] = test system: SNB-75
[7] = test system: COLO 205
[8] = test system: CCRF-CEM
[9] = test system: U-251
[10] = test system: OVCAR-4
[11] = test system: SF-295
[12] = test system: SK-OV-3
[13] = test system: NCI-H23
[14] = test system: KM12
[15] = test system: ACHN
[16] = test system: MDA-MB-435

Measured: GI50

CC(C)c1ccc2nc3ccc(C(=O)NCCN(C)C)cn3c(=O)c2c1
inactive: [1] 18 µM | [2] 15 µM | [3] 14.2 µM | [4] 17.6 µM | [5] 34.7 µM | [6] 10.4 µM | [7] 16.2 µM | [8] 14.9 µM | [9] 19.9 µM | [10] 24.7 µM | [11] 10.9 µM | [12] 17.5 µM | [13] 15.5 µM | [14] 17.3 µM | [15] 27.5 µM

C#CCOCCCC(=O)O
inactive: [1] > 100 µM | [2] > 100 µM | [3] > 100 µM | [4] > 100 µM | [5] > 100 µM | [6] > 100 µM | [7] > 100 µM | [8] > 100 µM | [9] > 100 µM | [10] > 100 µM | [11] > 100 µM | [12] > 100 µM | [13] > 100 µM | [15] > 100 µM

NN(CC(=O)O)CC(=O)O
inactive: [1] > 100 µM | [2] > 100 µM | [3] > 100 µM | [4] > 100 µM | [5] > 100 µM | [16] > 100 µM | [7] > 100 µM | [8] > 100 µM | [9] > 100 µM | [10] > 100 µM | [11] > 100 µM | [12] > 100 µM | [13] > 100 µM | [14] > 100 µM | [15] > 100 µM

CC1(C)COC(c2cccc(C(=O)c3ccccc3)c2)=N1
inactive: [2] 33.4 µM | [4] 59.4 µM | [5] 75.7 µM | [7] 56.9 µM | [8] 39.4 µM | [9] 70 µM | [10] 31 µM | [11] 40.7 µM | [12] > 100 µM | [13] 34.1 µM | [14] 44.6 µM | [15] 64.4 µM

COc1cc(S(=O)(=O)Nc2nc(-c3ccc(N4C(=O)C(CC(=O)O)SC4c4cccs4)cc3)cs2)ccc1Cl (configuration not stated)
inactive: [1] > 100 µM | [2] 81.1 µM | [4] > 100 µM | [5] 43.5 µM | [6] 17.2 µM | [16] 40 µM | [7] > 100 µM | [9] 42.6 µM | [10] 26.7 µM | [11] > 100 µM | [12] > 100 µM | [13] 22.6 µM | [14] 36.9 µM | [15] > 100 µM

O=c1oc(C(C(F)(F)F)C(F)(F)F)nc2ccccc12
inactive: [1] > 100 µM | [2] > 100 µM | [4] > 100 µM | [16] > 100 µM | [7] > 100 µM | [8] > 100 µM | [9] > 100 µM | [10] > 100 µM | [11] > 100 µM | [12] > 100 µM | [13] > 100 µM | [15] > 100 µM

O=C1COc2cccnc2N1CCCCO
inactive: [2] > 100 µM | [3] > 100 µM | [4] > 100 µM | [5] > 100 µM | [6] > 100 µM | [16] > 100 µM | [8] > 100 µM | [9] > 100 µM | [11] > 100 µM | [12] > 100 µM | [14] > 100 µM | [15] > 100 µM

COc1cc(/C=C2\N=C(c3ccccc3)N(/N=C/c3cc4cc(C)ccc4nc3Cl)C2=O)ccc1O
inactive: [2] 27.8 µM | [3] 63.8 µM | [4] 30.5 µM | [5] 65.6 µM | [6] 32.7 µM | [16] 17.3 µM | [7] 37.2 µM | [8] 16.2 µM | [9] 35.7 µM | [10] 43.8 µM | [11] 48.1 µM | [12] 88.1 µM | [14] 37.2 µM | [15] 36.6 µM

O=C(O)CCCc1nc2c(n1Cc1ccccc1)C(=O)c1ccccc1C2=O
inactive: [2] 47.9 µM | [4] 34.8 µM | [5] 29.6 µM | [6] > 10 µM | [7] 34.2 µM | [8] 5.19 µM | [9] 54.6 µM | [10] 20.2 µM | [11] 25.8 µM | [12] > 100 µM | [13] 31.6 µM | [14] 43.7 µM | [15] 45.2 µM

COC1=CC2(CC(OC)=C1OC)OC21COc2ccccc2C1=O (configuration not stated)
inactive: [1] 62.5 µM | [2] > 100 µM | [3] > 100 µM | [4] 42.9 µM | [6] 37.4 µM | [16] > 100 µM | [7] > 100 µM | [8] 32.3 µM | [9] 73.8 µM | [10] 84.5 µM | [11] 61.2 µM | [12] > 100 µM | [13] 58.5 µM | [14] > 100 µM | [15] 45.1 µM

Cc1nc(C(N)=S)sc1C(=O)C/C(=N/N)C(=O)Nc1ccc(Cl)cc1
inactive: [1] > 100 µM | [2] > 100 µM | [3] > 100 µM | [4] 55.5 µM | [6] > 100 µM | [16] > 100 µM | [9] 99.5 µM | [10] 78.3 µM | [11] 84.9 µM | [12] > 100 µM | [13] 57.9 µM | [14] 77.1 µM | [15] 44.6 µM

CCOC(=O)c1nnc2c(C(=O)OCC)c3ccccc3n2c1N
inactive: [2] 19.8 µM | [3] 13.7 µM | [4] 8.13 µM | [5] 37.4 µM | [6] 11 µM | [16] 5.05 µM | [7] 10.2 µM | [8] 2.22 µM | [9] 5.41 µM | [10] 5.2 µM | [11] 26.9 µM | [12] 6.04 µM | [13] 5.94 µM | [14] 4.43 µM | [15] 7.19 µM

CCOc1ccc(/C=C2\N=C(c3ccccc3)OC2=O)cc1
inactive: [1] > 100 µM | [3] > 100 µM | [4] > 100 µM | [6] 83 µM | [16] > 100 µM | [8] > 100 µM | [9] > 100 µM | [10] > 100 µM | [11] > 100 µM | [12] > 100 µM | [13] > 100 µM | [14] > 100 µM | [15] > 100 µM

C[C@]12CC[C@H]3[C@@H](CCC4=CC(=O)CC[C@@]43C)[C@@H]1CC[C@@H]2OC(=O)c1cccc2c(=O)c3ccccc3[nH]c12
inactive: [1] 75.3 µM | [2] > 100 µM | [3] 58.1 µM | [4] 46.8 µM | [6] 13.9 µM | [16] 43.2 µM | [7] > 100 µM | [8] 58.1 µM | [9] 61.2 µM | [10] 54.7 µM | [11] > 100 µM | [12] 58.5 µM | [13] > 100 µM | [14] 37.2 µM | [15] > 100 µM

OCCN(CCO)c1ccc2c(c1)Cc1ccccc1-2
inactive: [1] 44.4 µM | [2] 34 µM | [4] 19.7 µM | [5] 17.7 µM | [16] 51.6 µM | [7] 18.4 µM | [8] > 100 µM | [9] 49.3 µM | [10] 57.1 µM | [11] 88.3 µM | [12] 50.6 µM | [13] 51.4 µM | [14] 38.3 µM | [15] 32.1 µM

CC(OC(=O)NCn1cc(-c2ccccc2)nn1)c1ccccc1 (configuration not stated)
inactive: [1] 14.9 µM | [2] 34.3 µM | [3] 32.4 µM | [4] 46.5 µM | [5] 42.1 µM | [16] 28.8 µM | [7] 34.6 µM | [8] 31.6 µM | [9] 45.7 µM | [10] > 10 µM | [11] 43.8 µM | [13] 27.1 µM | [14] 37.7 µM | [15] 61.2 µM

COc1cc2c(c(OC)c1OC)C(=O)[C@@H]1[C@H]2N1C(N)=O
inactive: [1] > 100 µM | [2] > 100 µM | [4] 98.2 µM | [5] 61.4 µM | [6] 66.2 µM | [16] > 100 µM | [7] 91.2 µM | [8] > 100 µM | [9] 47 µM | [11] > 100 µM | [13] 69.2 µM | [14] > 100 µM | [15] 61.1 µM

CC(=O)OC12c3ccccc3-c3ccccc3C1C(C(=O)O)C2(Cl)C(=O)O (configuration not stated)
inactive: [1] > 10 µM | [2] > 10 µM | [4] > 10 µM | [5] > 10 µM | [6] > 10 µM | [16] > 10 µM | [7] > 10 µM | [8] > 10 µM | [9] > 10 µM | [10] > 10 µM | [11] > 10 µM | [12] > 10 µM | [13] > 10 µM | [14] > 10 µM | [15] > 10 µM

COc1cc(/C=C/C(=O)OCCc2ccccc2)ccc1O
inactive: [2] 14.2 µM | [3] 14.7 µM | [4] 18.6 µM | [5] 16.6 µM | [6] 15.2 µM | [16] 13.4 µM | [7] 19.4 µM | [9] 16 µM | [10] 13 µM | [11] 17.3 µM | [12] 16.1 µM | [13] 17.2 µM | [14] 14.6 µM | [15] 18.5 µM

NC(=O)C1CCCN1C(=O)C(N)Cc1ccccc1 (stereo not drawn) (H-Phe-Pro-NH2; configuration not given here)
inactive: [2] > 100 µM | [4] > 100 µM | [5] > 100 µM | [16] > 100 µM | [7] > 100 µM | [8] > 100 µM | [9] > 100 µM | [10] > 100 µM | [11] > 100 µM | [15] > 100 µM

Source: ChEMBL document CHEMBL1201862, “PubChem BioAssay data set” (2004)
